Legend:
[1] = test system: IL-1β; experiment: IL-1β release from LPS-treated monocytes (sandwich ELISA); assay type: cell-based; details: LPS stimulated monocytes
Description: Effect of apigenin on IL-1β release. IL-1β released was determined by sandwich ELISA in supernatants of freshly isolated monocytes, or monocytes cultured for 18 h left untreated, treated with 10 ng/ml of LPS or A with different doses of apigenin. B. LPS and different doses of apigenin added at the same time. C. LPS added 1 h prior to the addition of different doses of apigenin. Values represent means ±SEM (N=5, * P<0.05, compared to LPS alone)

[2] = test system: caspase-3; experiment: Caspase-3 activity, DEVD-AFC assay, THP-1 lysates; assay type: cell-based, human; details: THP-1, 50 μM apigenin
Description: (§1) FIG. 3. Apigenin induces caspase activation in monocytic leukemia. THP-1 (top) and U937 (bottom) leukemia cells were treated for various lengths of time with 50 μM apigenin or DMSO (NT). (A and C) Caspase-9 activity was determined by the LEHDAFC assay. (B and D) Caspase-3 activity was determined by the DEVD-AFC assay. Data represents means ±SEM (N=3).
FIG. 4. Caspase-3 activation is required for apigenin-induced apoptosis. THP-1 cells were treated for 12 h with 50 μM apigenin alone or pretreated with 20 μM DEVD-FMK for 1 h prior to the addition of apigenin. (A) Cells were then stained with calcein AM and 24 PI and the percentage of apoptotic cells was determined. (B) Lysates from cells treated as described above were used to determined caspase-3 activity by the DEVD-AFC assay. All data represents means ±SEM (N=5).
FIG. 7. Apigenin induced p38 activation is not required for apoptosis. A. Cells were pretreated for 1 h prior to addition of 50 μM apigenin or DMSO (−) with 10 or 25 μM concentrations of SB203580 or DMSO (−) for 12 h. The percentage of apoptotic cells was determined by calcein AM with PI stained cells. Data represents means ±SEM (N=5 p>0.05). B. Lysates from the same treatments were used to determined caspase-3 activity by the DEVD-AFC assay. Data represents means ±SEM (N=5 p>0.05).
For measurements of caspase activity, cells were plated at a density of 1.5×10^6 cells/well. After treatment, cells extracts were prepared as previously described (Doseff, A. I., Baker J. H., Bourgeois T. A. and Wewers M. D. (2003) Interleukin-4-induced zpoptosis entails caspase activation and suppression of extracellular signal-regulated kinase phosphorylation. Am. J. Resp. Cell Mol. Biol., 29, 367-374). […] Levels of released AFC were measured using Cytofluor 400 fluorimeter (Filters: excitation 400 nm, emission 508 nm; Perspective Co., Framingham, Mass.).

[3] = test system: caspase-3; experiment: Caspase-3 activity, DEVD-AFC assay, U937 lysates; assay type: cell-based, human; details: U937, 50 μM apigenin; remained high even after 24 h
Description: as §1
For measurements of caspase activity, cells were plated at a density of 1.5×10^6 cells/well. After treatment, cells extracts were prepared as previously described (Doseff, A. I., Baker J. H., Bourgeois T. A. and Wewers M. D. (2003) Interleukin-4-induced zpoptosis entails caspase activation and suppression of extracellular signal-regulated kinase phosphorylation. Am. J. Resp. Cell Mol. Biol., 29, 367-374). Protein extracts were incubated with 20 μM DEVD-AFC to determine caspase-3 activity or LEHD-AFC to determine caspase-9 activity (Enzyme Systems Products, Livermore, Calif.) in a cytobuffer as previously described (Doseff, A. I., Baker J. H., Bourgeois T. A. and Wewers M. D. (2003) Interleukin-4-induced zpoptosis entails caspase activation and suppression of extracellular signal-regulated kinase phosphorylation. Am. J. Resp. Cell Mol. Biol., 29, 367-374). Levels of released AFC were measured using Cytofluor 400 fluorimeter (Filters: excitation 400 nm, emission 508 nm; Perspective Co., Framingham, Mass.).

[4] = test system: THP-1 cells; experiment: Reverse-phase HPLC of extracts of treated THP-1 cells (conversion of compound); details: extracts of THP-1 cells, data not shown
[5] = test system: Akt; experiment: Western blot of Akt phosphorylation and total Akt in THP-1 cells; assay type: cell-based, human; details: THP-1, 50 μM apigenin
Description: FIG. 5. Apigenin affects Akt phosphorylation. THP-1 cells were treated with 50 μM apigenin for different lengths of time. Lysates were separated by SDS-PAGE, transferred and immunoblotted with anti-phospho-Akt (pSer 473), anti-phospho-Akt (pThr 308), total Akt, and â-tubulin antibodies.
FIG. 6. Apigenin induces the activation of p38 and inactivation of Akt. A. THP-1 cells were treated with 50 μM apigenin for various lengths of time. Lysates were separated by SDS-PAGE, transferred and analyzed by immunoblots with anti-phospho-p38 (pp 38) and anti-total-p38 antibodies. B. […] Lysates were analyzed by immunoblotting with anti-phospho-Akt (pSer 473), anti-phospho-p38 (p-p38), and anti-total-p38 antibodies.
Extracts from 3×10^6 cells were prepared by incubating cells for 30 min on ice in lysis buffer (50 mM Tris, 10 mM EDTA 0.5% NP-40, 10 mM Na-glycerophosphate, 5 mM Na-pyrophosphate, 50 mM NaF, 1 mM orthovanadate, 1 mM DTT, 0.1 mM PMSF, 2 μg/ml of protease inhibitors: chymostatin, pepstatin, antipain, and leupeptin). Cell lysates were centrifuged (14,000×g for 10 min at 4° C.) and the supernatants were stored for at −70° C. for future analysis. Equal amounts of protein were loaded and separated by SDS-PAGE, transferred onto nitrocellulose membranes and probed with antibodies of interest followed by horseradish peroxidase conjugated secondary antibody and visualized by enhanced chemiluminescence (Amersham, Arlington Heights, Ill.). Phospho-Ser473-Akt, phospho-Thr308-Alt, total AKT, phospho-p38 and total p38 antibodies were obtained from Cell Signaling (Boston, Mass.). â-tubulin antibody was obtained from Upstate (Charlottesville, Va.).

[6] = test system: LPS stimulated monocytes; experiment: Cell death of LPS-treated monocytes (calcein AM/PI); assay type: cell-based; details: monocytes stimulated with LPS, increasing amount of apigenin
Description: To investigate apoptosis, cells were plated at a density of 1×10^6 cells/well. After treatment, cells were collected and washed in PBS. Cells were then incubated in RPMI (no phenol red) and 1 μg/ml calcein AM for 30 min and 5×10−2 ng/ml propidium iodide (PI) for 5 min. Cells were washed twice and resuspended in PBS. Cells were viewed using a fluorescent microscope (Olympus, Melville, N.Y.). At least 200 cells were counted. Cells calcein AM positive (green) in the absence of PI (red) were considered alive while cells undergoing apoptosis are green with red. Number of green cells or green with red cells was counted over total number of cells (green alone and green with red) to express cell survival or apoptotic cell percentage respectively.
Apigenin induces cell death on LPS-treated monocytes. Monocytes were stained with calcein AM and PI as described in Material and Methods to evaluate the percentage of cell death and survival. Monocytes freshly isolated (Fresh), treated for 16 h with 10 ng/ml LPS alone, left untreated (NT) or (A) treated with different doses of apigenin, (B) with LPS and apigenin, or (C) with LPS 1 h prior to the addition of apigenin. Values represent the means ±SEM (N=#, *P<0.05 compared to LPS alone).

O=c1cc(-c2ccc(O)cc2)oc2cc(O)cc(O)c12 [apigenin]
release of IL-1β [1]: inhibits | caspase-3 activity, time course [2]: detected after 6 h and similarly to caspase-9, the activity was sustained at 9 h, but decreased after 12 h | caspase-3 activity, time course [3]: detected at 9 h | conversion to another chemical entity in treated cells [4]: neither one of these two compounds is significantly converted | total Akt protein levels ([5]; after six hours): dramatically decreased | Akt pSer473 phosphorylation ([5]; during the first hour): rapid decrease | Akt pThr308 phosphorylation ([5]; first six hours): not significantly affected | death of LPS stimulated monocytes [6]: induces the death of such stimulated monocytes in an apigenin-dose dependent manner
